The results in this text go back to ChEMBL document CHEMBL2203135, “Novel progesterone receptor modulators: 4-aryl-phenylsulfonamides” (Bioorg Med Chem Lett, 2012).

For experiment [1], the target named is T1, Estrogen receptor (Homo sapiens) (UniProt P03372).
T1 sequence (whole entry): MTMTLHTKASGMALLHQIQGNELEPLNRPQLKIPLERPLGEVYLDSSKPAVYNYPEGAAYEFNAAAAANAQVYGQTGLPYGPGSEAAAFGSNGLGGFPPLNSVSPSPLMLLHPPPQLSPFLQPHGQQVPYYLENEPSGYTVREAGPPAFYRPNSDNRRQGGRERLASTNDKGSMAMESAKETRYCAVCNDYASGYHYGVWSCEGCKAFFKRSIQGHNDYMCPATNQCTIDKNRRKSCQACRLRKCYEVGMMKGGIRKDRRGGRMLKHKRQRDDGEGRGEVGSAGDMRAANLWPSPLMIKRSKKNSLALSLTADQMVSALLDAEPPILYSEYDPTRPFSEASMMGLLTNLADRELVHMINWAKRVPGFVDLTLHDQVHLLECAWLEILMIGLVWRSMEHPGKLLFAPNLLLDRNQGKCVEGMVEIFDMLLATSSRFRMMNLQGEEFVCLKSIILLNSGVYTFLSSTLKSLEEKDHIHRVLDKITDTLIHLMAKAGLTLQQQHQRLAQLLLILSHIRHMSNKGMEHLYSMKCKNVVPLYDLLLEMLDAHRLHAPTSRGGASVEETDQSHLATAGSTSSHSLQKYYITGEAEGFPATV
The experiment can be described thus: Agonist activity at estrogen receptor by cellular reporter gene assay. Type of experiment: functional. On the technique in general: In a reporter assay the amount or activity of a reporter protein is the signal.

For experiment [2], the target named is T2, Androgen receptor (Homo sapiens, UniProt P10275).
T2 sequence (P10275 whole entry): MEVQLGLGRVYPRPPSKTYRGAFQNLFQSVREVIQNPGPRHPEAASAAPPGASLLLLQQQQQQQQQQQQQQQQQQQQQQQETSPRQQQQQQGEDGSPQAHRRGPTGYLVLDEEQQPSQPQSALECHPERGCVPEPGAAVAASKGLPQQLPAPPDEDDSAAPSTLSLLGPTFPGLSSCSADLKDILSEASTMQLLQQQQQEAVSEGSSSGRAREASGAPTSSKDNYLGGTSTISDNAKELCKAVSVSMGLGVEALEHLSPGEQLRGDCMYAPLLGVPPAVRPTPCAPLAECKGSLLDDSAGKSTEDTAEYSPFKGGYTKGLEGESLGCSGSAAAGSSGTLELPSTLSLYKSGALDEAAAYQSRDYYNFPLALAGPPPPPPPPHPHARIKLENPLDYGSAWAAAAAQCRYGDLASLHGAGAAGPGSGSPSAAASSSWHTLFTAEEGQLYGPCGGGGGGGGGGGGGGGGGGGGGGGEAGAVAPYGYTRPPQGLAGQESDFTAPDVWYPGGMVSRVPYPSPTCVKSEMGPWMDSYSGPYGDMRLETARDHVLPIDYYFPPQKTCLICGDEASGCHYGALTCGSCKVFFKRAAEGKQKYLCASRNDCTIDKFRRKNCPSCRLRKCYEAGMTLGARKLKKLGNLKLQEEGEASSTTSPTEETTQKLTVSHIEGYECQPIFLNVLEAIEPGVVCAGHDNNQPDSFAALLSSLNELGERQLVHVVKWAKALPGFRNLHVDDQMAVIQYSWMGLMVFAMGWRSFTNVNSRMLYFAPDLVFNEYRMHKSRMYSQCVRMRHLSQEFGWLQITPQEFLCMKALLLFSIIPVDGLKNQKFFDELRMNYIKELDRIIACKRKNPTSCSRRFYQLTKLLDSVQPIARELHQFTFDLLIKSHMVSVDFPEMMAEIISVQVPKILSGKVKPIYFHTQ
The experiment can be described thus: Antagonist activity at androgen receptor by cellular reporter gene assay. Type of experiment: functional.

In experiment [3] the target is T3, Progesterone receptor (Homo sapiens, UniProt P06401).
T3 sequence (P06401 whole entry): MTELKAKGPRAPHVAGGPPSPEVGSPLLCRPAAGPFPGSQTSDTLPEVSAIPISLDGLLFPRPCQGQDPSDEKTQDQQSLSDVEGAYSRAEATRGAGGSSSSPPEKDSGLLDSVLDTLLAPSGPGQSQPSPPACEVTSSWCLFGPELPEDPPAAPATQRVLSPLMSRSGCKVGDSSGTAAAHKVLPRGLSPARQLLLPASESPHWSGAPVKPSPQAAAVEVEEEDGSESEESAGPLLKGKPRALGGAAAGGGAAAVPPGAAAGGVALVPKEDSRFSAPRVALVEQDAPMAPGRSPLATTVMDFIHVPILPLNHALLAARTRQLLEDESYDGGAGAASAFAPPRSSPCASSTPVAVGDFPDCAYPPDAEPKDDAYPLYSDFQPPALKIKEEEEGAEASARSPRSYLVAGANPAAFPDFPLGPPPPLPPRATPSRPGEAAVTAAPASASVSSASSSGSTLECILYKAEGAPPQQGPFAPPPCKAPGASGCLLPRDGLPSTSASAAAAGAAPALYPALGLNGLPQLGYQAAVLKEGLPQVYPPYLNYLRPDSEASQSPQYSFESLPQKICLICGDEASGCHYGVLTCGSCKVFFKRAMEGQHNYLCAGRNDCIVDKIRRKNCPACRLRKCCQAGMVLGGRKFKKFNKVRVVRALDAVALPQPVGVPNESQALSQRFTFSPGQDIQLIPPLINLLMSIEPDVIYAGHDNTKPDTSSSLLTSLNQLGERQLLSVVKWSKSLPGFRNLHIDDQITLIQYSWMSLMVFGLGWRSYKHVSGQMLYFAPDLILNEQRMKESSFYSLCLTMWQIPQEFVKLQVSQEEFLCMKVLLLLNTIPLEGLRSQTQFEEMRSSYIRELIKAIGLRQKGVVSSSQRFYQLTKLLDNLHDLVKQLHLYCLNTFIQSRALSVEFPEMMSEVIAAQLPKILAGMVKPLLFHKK
The experiment can be described thus: Antagonist activity against progesterone receptor in human T47D cells by alkaline phosphatase assay. In kind it is functional, cell-based.

Calls of active or inactive are those of the source. The calls are words filed in the database; no cut-off is given here.

Broadly, the IC50 is the concentration needed to halve the response being measured. A lower IC50 goes with greater potency. For `CCS(=O)(=O)Nc1cc(F)c(-c2ccc(C#N)n2C)c(F)c1`, the outcome in experiment [1] was inactive. Further, the IC50 was 100 nM in experiment [2] and 12 nM in experiment [3].
For `COC[C@]1(OC)CC[C@H]2[C@@H]3CCC4=CC(=O)CCC4=C3[C@@H](c3ccc(/C=N/O)cc3)C[C@@]21C` [ASOPRISNIL], the outcome in experiment [1] was inactive. The IC50 was determined as 9 nM in experiment [2] and 0.3 nM in experiment [3].
